This is an account of results in patent US8912184B1, “Therapeutic and diagnostic methods” (Alzheimer's Institute of America, Inc., priority 2010, dated 2014).

The structures appear in SMILES notation. Where two headings read alike, the source gives them in different places.

The experiment concerns HCT116 cells. The experiment can be described thus: Nicotinic Acid Rescue Cytotoxicity Assay, first method: cytotoxicity to HCT116 cells in presence and absence of 10 μM nicotinic acid. The note with it: Homo sapiens, HCT-116, 72 h. It is filed as cell-based. The procedure: Additionally, Nicotinic Acid (NA) rescue of cytotoxicity of Nampt inhibitors was assessed by two distinct methods. In the first method, Nampt1 inhibitor cytotoxicity was evaluated in the presence and absence of exogenous nicotinic acid (NA) at a fixed concentration. […] Twenty four hours after cells were plated, the media was removed and replaced with media containing 10 μM nicotinic acid. Compounds were then immediately added. Cell viability was then assessed at 72 h.
Using the first of the two assays described above, the 90 compounds shown in Table 5, below, were tested for cytotoxicity towards Naprt1-proficient HCT116 cells, and for the ability of NA to block the observed cytotoxicity (or “rescue” the cells from the cytotoxic activity of the tested compound). The compounds listed are referred to by a unique rescue analysis example number (i.e., R1, R2 . . . R90) that is used as a reference number in Table 4, in which the results of the cytotoxicity and rescue assays are presented.

Setting [1] is: absence of nicotinic acid, read-out: HCT116 72 h cytotoxicity.
[2] abbreviates: presence of 10 μM nicotinic acid, read-out: HCT116 72 h cytotoxicity with 10 μM Nicotinic Acid.

In the case of `O=C(NCc1cccnc1)c1ccc(NC(=S)Nc2cccc(OCc3ccccc3)c2)cc1` [Example R15, 4-({[3-(Benzyloxy)phenyl]carbamothioyl}amino)-N-(pyridin-3-ylmethyl)benzamide], the IC50 was 4.69 µM under setting [1] and above 50 µM under setting [2].

As to `O=C(CN1CCc2ccccc21)Nc1ccc(C(=O)NCc2cccnc2)cc1` [Example R16, 4-[(2,3-Dihydro-1H-indol-1-ylacetyl)amino]-N-(pyridin-3-ylmethyl)benzamide], the IC50 was 3.29 µM under setting [1] and above 50 µM under setting [2].

Consider `O=C(CN1CCCc2ccccc21)Nc1ccc(C(=O)NCc2cccnc2)cc1` [Example R17, 4-[(3,4-Dihydroquinolin-1(2H)-ylacetyl)amino]-N-(pyridin-3-ylmethyl)benzamide], for which the IC50 is, setting by setting: under setting [1], 2.05 µM; under setting [2], above 50 µM.

As to `O=C(CNCc1ccccc1Br)Nc1ccc(C(=O)NCc2cccnc2)cc1` [Example R18, 4-{[N-(2-Bromobenzyl)glycyl]amino}-N-(pyridin-3-ylmethyl)benzamide], the IC50 under setting [1] stood at 6.81 µM and the IC50 under setting [2] was above 50 µM.

Regarding `O=C(CNc1ccccc1Oc1ccccc1)Nc1ccc(C(=O)NCc2cccnc2)cc1` [Example R19, 4-{[N-(2-Phenoxyphenyl)glycyl]amino}-N-(pyridin-3-ylmethyl)benzamide], the IC50 by setting is: under setting [1], 0.586 µM; under setting [2], above 50 µM.

As for `Cc1ccccc1NCC(=O)Nc1ccc(C(=O)NCc2cccnc2)cc1` [Example R20, 4-{[N-(2-Methylphenyl)glycyl]amino}-N-(pyridin-3-ylmethyl)benzamide], the IC50 was 0.106 µM under setting [1] and above 50 µM under setting [2].

Consider `CCOc1ccccc1NCC(=O)Nc1ccc(C(=O)NCc2cccnc2)cc1` [Example R21, 4-{[N-(2-Ethoxyphenyl)glycyl]amino}-N-(pyridin-3-ylmethyl)benzamide], for which the IC50 runs as follows: under setting [1], 0.435 µM; under setting [2], above 50 µM.

Regarding `CC(C)c1ccccc1NCC(=O)Nc1ccc(C(=O)NCc2cccnc2)cc1` [Example R22], the IC50 is 0.302 µM under setting [1] and above 50 µM under setting [2].

As to `O=C(NCc1cccnc1)c1ccc(OCc2ccccc2-c2ccccc2)cc1` [Example R23, 4-(Biphenyl-2-ylmethoxy)-N-(pyridin-3-ylmethyl)benzamide], the IC50 under setting [1] amounted to 0.539 µM and the IC50 under setting [2] was above 50 µM.

With `Cc1c(COc2ccc(C(=O)NCc3cccnc3)cc2)cccc1C(F)(F)F` [Example R24, 4-{[2-Methyl-3-(trifluoromethyl)benzyl]oxy}-N-(pyridin-3-ylmethyl)benzamide], the IC50 was determined as 12 µM under setting [1] and 45 µM under setting [2].

As for `CC(C)c1cccc(-c2ccccc2CNc2ccc(C(=O)NCc3cccnc3)cc2)c1` [Example R25, 4-({[3′-(Propan-2-yl)biphenyl-2-yl]methyl}amino)-N-(pyridin-3-ylmethyl)benzamide], the IC50 is, setting by setting: under setting [1], 8.33 µM; under setting [2], 37 µM.

For `CC(=O)Nc1cccc(-c2ccccc2CNc2ccc(C(=O)NCc3cccnc3)cc2)c1` [Example R26, 4-({[3′-(Acetylamino)biphenyl-2-yl]methyl}amino)-N-(pyridin-3-ylmethyl)benzamide], the IC50 turned out to be 0.0269 µM under setting [1] and 25 µM under setting [2].

Consider `O=C(NCc1cccnc1)c1ccc(NCc2ccccc2-c2ccccc2)cc1` [Example R27, 4-[(Biphenyl-2-ylmethyl)amino]-N-(pyridin-3-ylmethyl)benzamide], for which the IC50 worked out at 0.0871 µM under setting [1] and 37 µM under setting [2].

For `Cc1ccccc1-c1ccccc1CNc1ccc(C(=O)NCc2cccnc2)cc1` [Example R28, 4-{[(2′-Methylbiphenyl-2-yl)methyl]amino}-N-(pyridin-3-ylmethyl)benzamide], the IC50 by setting is: under setting [1], 0.335 µM; under setting [2], 25 µM.

With `O=C(NCc1cccnc1)c1ccc(NCc2ccccc2-c2cccc(C(F)(F)F)c2)cc1` [Example R29, N-(Pyridin-3-ylmethyl)-4-({[3′-(trifluoromethyl)biphenyl-2-yl]methyl}amino)benzamide], the IC50 came to 10.3 µM under setting [1] and 25 µM under setting [2].

`O=C(NCc1cccnc1)c1ccc(NCc2ccccc2-c2cccc(Cl)c2)cc1` [Example R30, 4-{[(3′-Chlorobiphenyl-2-yl)methyl]amino}-N-(pyridin-3-ylmethyl)benzamide]: the IC50 by setting is: under setting [1], 1.35 µM; under setting [2], 29 µM.

As for `O=C(NCc1cccnc1)Nc1ccc(NCc2ccccc2Cl)cc1` [Example R31, 1-{4-[(2-Chlorobenzyl)amino]phenyl}-3-(pyridin-3-ylmethyl)urea], the IC50 under setting [1] turned out to be 1.27 µM and the IC50 under setting [2] was above 50 µM.

With `O=C(NCc1cccnc1)Nc1ccc(NS(=O)(=O)c2ccccc2)cc1` [Example R32, N-(4-{[(Pyridin-3-ylmethyl)carbamoyl]amino}phenyl)benzene-sulfonamide], the IC50 is, setting by setting: under setting [1], 0.194 µM; under setting [2], above 50 µM.

For `O=C(NCc1cccnc1)Nc1ccc(NS(=O)(=O)c2ccccc2Br)cc1` [Example R33, 2-Bromo-N-(4-{[(pyridin-3-ylmethyl)carbamoyl]amino}phenyl)benzene-sulfonamide], the IC50 under setting [1] was determined as 0.0046 µM and the IC50 under setting [2] was above 50 µM.

On to `O=C(NCCc1cccnc1)c1ccc(NCc2ccccc2Br)cc1` [Example R34, 4-[(2-Bromobenzyl)amino]-N-[2-(pyridin-3-yl)ethyl]benzamide], for which the IC50 was 1.16 µM under setting [1] and above 50 µM under setting [2].

As for `N#Cc1ccc(NC(=S)NCCCCCCOc2ccc(Cl)cc2)cc1` [Example R35, 1-[6-(4-Chlorophenoxy)hexyl]-3-(4-cyanophenyl)thiourea], the IC50 runs as follows: under setting [1], 1.53 µM; under setting [2], 2 µM.

In the case of `N#C/N=C(\NCCCCCCOc1ccc(Cl)cc1)Nc1ccc(Br)nc1` [Example R36, 1-(6-Bromopyridin-3-yl)-2-[6-(4-chlorophenoxy)hexyl]-3-cyanoguanidine], the IC50 by setting is: under setting [1], 6 µM; under setting [2], above 10 µM.

In the case of `N#C/N=C(\NCCCCCCOc1ccc(Cl)cc1)Nc1ccnc(Cl)c1` [Example R37, 1-[6-(4-Chlorophenoxy)hexyl]-2-(2-chloropyridin-4-yl)-3-cyanoguanidine], the IC50 reads like this: under setting [1], 0.169 µM; under setting [2], 5 µM.

As for `Cc1cnccc1N/C(=N/C#N)NCCCCCCOc1ccc(Cl)cc1` [Example R38, 1-[6-(4-Chlorophenoxy)hexyl]-2-cyano-3-(3-methylpyridin-4-yl)guanidine], the IC50 by setting is: under setting [1], 0.0014 µM; under setting [2], above 10 µM.

Turning to `S=C(NCCCCCCOc1ccc(Cl)cc1)Nc1cccnc1` [Example R39, 1-[6-(4-Chlorophenoxy)hexyl]-3-pyridin-3-ylthiourea], the IC50 is, setting by setting: under setting [1], 1.62 µM; under setting [2], above 10 µM.

As to `N#C/N=C(/NCCCCCCOc1ccc(Cl)cc1)NCc1cccnc1` [Example R40, 1-[6-(4-Chlorophenoxy)hexyl]-2-cyano-3-(pyridin-3-ylmethyl)guanidine], the IC50 runs as follows: under setting [1], 1.09 µM; under setting [2], above 10 µM.

For the compound `O=C(NCCCCCCOc1ccc(Cl)cc1)Nc1ccc(F)c(F)c1` [Example R41, 1-[6-(4-Chlorophenoxy)hexyl]-3-(3,4-difluorophenyl)urea], the IC50 reads like this: under setting [1], 7.08 µM; under setting [2], 6 µM.

For the compound `CC(C)CCN(Cc1ccccc1Cl)c1ccc(C(=O)NCc2cccnc2)cc1` [Example R42, 4-[(2-Chlorobenzyl)(3-methylbutyl)amino]-N-(pyridin-3-ylmethyl)benzamide], the IC50 runs as follows: under setting [1], 0.387 µM; under setting [2], above 10 µM.

Take `C/C=C/CN(Cc1ccccc1Cl)c1ccc(C(=O)NCc2cccnc2)cc1` [Example R43, 4-[(2E)-But-2-en-1-yl(2-chlorobenzyl)amino]-N-(pyridin-3-ylmethyl)benzamide]: the IC50 reads like this: under setting [1], 0.0986 µM; under setting [2], above 10 µM.

Turning to `CC(C)=CCN(Cc1ccccc1Cl)c1ccc(C(=O)NCc2cccnc2)cc1` [Example R44, 4-[(2-Chlorobenzyl)(3-methylbut-2-en-1-yl)amino]-N-(pyridin-3-ylmethyl)benzamide], the IC50 under setting [1] was 0.0163 µM and the IC50 under setting [2] was above 10 µM.

Take `CN(C)c1cccc2c(S(=O)(=O)Nc3ccc(NC(=O)NCc4cccnc4)cc3)cccc12` [Example R45, 5-(Dimethylamino)-N-(4-{[(pyridin-3-ylmethyl)carbamoyl]amino}phenyl) naphthalene-1-sulfonamide]: the IC50 under setting [1] was 0.0048 µM and the IC50 under setting [2] was above 10 µM.

`O=C(NCc1cccnc1)Nc1ccc(NS(=O)(=O)c2ccc3ccccc3c2)cc1` [Example R46, N-(4-{[(Pyridin-3-ylmethyl)carbamoyl]amino}phenyl) naphthalene-2-sulfonamide]: the IC50 by setting is: under setting [1], 0.0648 µM; under setting [2], above 10 µM.

Take `C#CCN(Cc1ccc2nc(C)n(C)c(=O)c2c1)c1ccc(C(=O)NCc2cccnc2)cc1` [Example R47, 4-{[(2,3-Dimethyl-4-oxo-3,4-dihydroquinazolin-6-yl)methyl](prop-2-yn-1-yl)amino}-N-(pyridin-3-ylmethyl)benzamide]: the IC50 reads like this: under setting [1], 0.0335 µM; under setting [2], above 10 µM.

`O=C(NCc1cccnc1)c1ccc(OCc2ccccc2-c2cnc3ccccc3c2)cc1` [Example R48, N-(Pyridin-3-ylmethyl)-4-{[2-(quinolin-3-yl)benzyl]oxy}benzamide]: the IC50 reads like this: under setting [1], 0.0388 µM; under setting [2], above 10 µM.

As to `O=C(NCc1cccnc1)Nc1ccc(NS(=O)(=O)c2ccccc2-c2ccccc2)cc1` [Example R49, N-(4-{[(Pyridin-3-ylmethyl)carbamoyl]amino}phenyl)biphenyl-2-sulfonamide], the IC50 was 0.0049 µM under setting [1] and above 10 µM under setting [2].
